# Assay results published in patent US8796031B2, “Microchip for platelet examination and platelet examination device using same” (Fujimori Kogyo Co., Ltd., priority 2010, dated 2014).
# System: platelet aggregates
# Experiment: Platelet function test: inflow pressure of blood through collagen-coated microchip with plasma-treated channel dividing section (Test Example 3)
# Assay type: ex vivo
# Conditions: blood collected before and after dosing of 100 mg of aspirin, hirudin 25 μg/ml anticoagulation, flow rate 27 μl/minute or 9 μl/minute
# Protocol: Blood was collected from a sample before and after dosing of 100 mg of aspirin, and each obtained blood was subjected to anticoagulation treatment with hirudin (25 μg/ml). The anticoagulated blood was subjected to flow through the channel of a microchip having a plasma-treated channel dividing section. More particularly, the reservoir 109 was filled with anticoagulated blood (before and after dosing of 100 mg of aspirin), and the pump 111 was filled with mineral oil. The pump 111 was connected to the reservoir 109, and a tip of the reservoir 109 was connected to the inlet 106 of the microchip 1. By injecting mineral oil from the pump 111 at a flow rate of 27 μl/minute or 9 μl/minute into the reservoir to overlay the mineral oil on the blood, the blood in the reservoir was pushed into the microchip 1 at the same flow rate, while the inflow pressure of the mineral oil (that is, the inflow pressure of the blood) was measured with a pressure sensor which is not shown.
# In the case where the microchip having a plasma-untreated channel dividing section was used, the pressure increase was insufficient and the effect of aspirin could be therefore hardly identified. […]
# Thus, the plasma irradiation increased the pressure to a higher level, and the stability of platelet aggregates under high-flow-rate conditions could be analyzed more accurately.
smiles,measurement,value
CC(=O)Oc1ccccc1C(=O)O [aspirin],effect of aspirin on platelet aggregation (inflow pressure of blood),decrease the stability of formed platelet aggregates rather than an effect to decrease the formation rate of platelet aggregates
